Laboratory results from patent publication US12246091B2, “Method of encapsulating active ingredients in liposomes” (ABNOBA GMBH, priority 2018, dated 2025).

Experiment: Solubility of the amphiphilic compound in the first liquid perfluoroperhydrophenanthrene (C14F24)
Settings: for solubility: perfluoroperhydrophenanthrene (C14F24), organic solvent or mixture

CCCCCCCCCCCCCCCC(=O)OC[C@H](COP(=O)([O-])OCC[N+](C)(C)C)OC(=O)CCCCCCCCCCCCCCC [DPPC, dipalmitoylphosphatidylcholine]
solubility: < 10 µM

CCCCCCCCCCCCCCCCCC(=O)OC[C@H](COP(=O)([O-])OCC[N+](C)(C)C)OC(=O)CCCCCCCCCCCCCCCCC [DSPC, distearoylphosphatidylcholine]
Solubility in C14F24 (in perfluoroperhydrophenanthrene (C14F24, CAS 306-91-2), bound is the detection limit): < 10^−5 mol/l

CC(C)CCC[C@@H](C)[C@H]1CC[C@H]2[C@@H]3CC=C4C[C@@H](O)CC[C@]4(C)[C@H]3CC[C@]12C [cholesterol]
solubility: < 10 µM
